Like-named read-outs stand apart in the source and are kept apart here.

These results are taken from paper PMC3835519 (Aquatic toxicology (Amsterdam, Netherlands), 2012).

The format of data set [1] is in vitro ADME, Mus musculus.
For data set [2], the system named is purified porcine esterases. The settings on record: ref Roberts et al., 2011a, b; cited from earlier work.
The format of data set [3] is in vitro ADME, Chelydra serpentina serpentina. The settings on record: snapping turtle S9; 120 min; 1 mg protein.
The format of data set [4] is in vitro ADME, Cyprinus carpio. The settings on record: S9 of smaller (likely younger, juvenile) carp population; mean ± SD, N = 3.
The format of data set [5] is in vitro ADME, Pimephales promelas. The settings on record: all three fathead minnow subcellular fractions; significant = three times the background.

For the compound `CCCCC(CC)COC(=O)c1cc(Br)c(Br)c(Br)c1Br` (stereo not drawn) [TBB, 2-ethylhexyl 2,3,4,5-tetrabromobenzoate], in data set [1] (S9, 4-month-old vs 2-month-old male mice), the “difference in TBB metabolism between age classes” value is on record as “No difference”. Also, the metabolism by esterases result in data set [2] was “rapidly metabolize”. Moreover, the “metabolism of TBB (loss of parent vs heat-inactivated control)” value in data set [3] is “not metabolized”. For the same compound, the “metabolic rate of TBB” value in data set [4] was found to be 1.30 ± 0.62 pmoles TBB mg^−1 min^−1.
For the compound `COC(=O)c1cc(Br)c(Br)c(Br)c1Br` [TBMB, 2,3,4,5-tetrabromomethylbenzoate], the “TBMB metabolite peaks in chromatograms of incubations” value in data set [1] (mouse incubations, significant = three times the background) is reported as “not significant”; in data set [5], “Significant peaks”.
